Assays:
Format in all cases: in vivo, mouse
GAD67 = GAD67 immunohistochemistry in mPFC, offspring after MIA; conditions: adult offspring of poly(I:C)-treated mice vs saline-treated group
Procedure: Immunohistochemistry. Immunohistochemistry of PV was performed as reported previously (37,39,59,60). Mice were anesthetized with 5% isoflurane and sodium pentobarbital (50 mg/kg), and perfused transcardially with 10 mL of physiological saline, followed by 40 mL of ice-cold 4% paraformaldehyde in 0.1M phosphate buffer (pH 7.4). Brains were removed from the skulls and post fixed overnight at 4° C. in the same fixative. For the immunohistochemical analysis, 50 μm-thick serial, coronal sections of brain tissue were cut in ice-cold 0.01M phosphate buffered saline (pH 7.5) using a vibrating blade microtome (VT1000s, Leica Microsystems, Tokyo, Japan). Free-floating sections were treated with 0.3% H2O2 in 50 mM Tris-HCl saline (TBS) for 30 min and were blocked in TBS containing 0.2% Triton X-100 (TBST) and 1.5% normal serum for 1 h at room temperature. […] The sections were imaged, and the staining intensity of PV (or GADO immunoreactivity in the inflalimbic (IL) and prelimbic (PrL) regions of mPFC was analyzed using a light micro-scope equipped with a CCD camera (Olympus IX70, Tokyo, Japan) and the SCION IMAGE software package. Images of sections within mPFC region were captured using a 100× objective with a Keyence BZ-X710 microscope (Keyence Corporation, Osaka, Japan).

sEH = assay: Western blot of sEH in brain regions of juvenile offspring after MIA
Procedure: Administration of poly(I:C) into pregnant mice. The schedule of poly(I:C) treatment was performed as reported previously (13,36-39). The pregnant mice were injected intraperitoneally (i.p.) for six consecutive days from E12 to E17 with poly(I:C) (5.0 mg/kg/day, Sigma-Aldrich Co. Ltd., St. Louis, MO, USA) dissolved in physiological saline, or an equivalent volume (5 ml/kg) of saline. The male offspring were separated from their mothers at wearing (P21), and mice were caged each three-five in the groups in clear polycarbonate cage (22.5×33.8×14.0 cm). Mice were housed under controlled temperatures and 12-hour light/dark cycles (lights on between 07:00-19:00 h), with ad libitum food and water.
Collection of brain samples and oxylipin profiling. […]
Western blot analysis. […] 50 μg of protein were measured using the DC protein assay kit (Bio-Rad), and incubated for 5 min at 95° C., with an equal volume of 125 mM Tris-HCl, pH6.8, 20% glycerol, 0.1% bromophenol blue, 10% β-mercaptoethanol, 4% sodium dodecyl sulfate, and subjected to sodium dodecyl sulfate polyacrylamide gel electrophoresis, using 7.5% or AnyKD mini-gels (Mini-PROTEAN® TGX™ Precast Gel; Bio-Rad, CA, USA). […] After final three washes with TBST, bands were detected using enhanced chemiluminescence (ECL) prime Western Blotting Detection system (GE Healthcare Bioscience). […]

ddY mice = assay: Three-chamber social interaction test, offspring after maternal glyphosate exposure; conditions: juvenile offspring, maternal 0.095% glyphosate vs water treated group
Procedure: Treatment of TPPU. TPPU was dissolved in polyethylene glycol 400 (PEG 400: Tokyo Chemical Industry Co., Ltd, Tokyo, Japan). TPPU (3 mg/kg/day) or vehicle (5 ml/kg, PEG 400) was administered orally in the pregnant mice from E5 to P21. Behavioral tests of offspring were performed during juvenile stage (P28-P35) after maternal glyphosate exposure (FIG. 1A).
Three-chamber Social Interaction Test: The three-chamber social interaction test was performed to investigate sociability and preference for social novelty in mice, as reported previously (7). The apparatus consisted of a rectangular, three-chambered box and a lid with a video camera (BrainScience Idea, Co., Ltd, Osaka, Japan). Each chamber (20 cm×40 cm×20 cm) was divided by a clear plastic wall with a small square opening (5 cm×8 cm). First, each subject mouse was placed in the box and allowed to explore for 10 min to habituate the environment. During the session, an empty wire cage (10 cm in diameter, 17.5 cm in height, with vertical bars 0.3 cm apart) was located in the center of left and right chamber. Next, an unfamiliar ddY male mouse (stranger 1) that had no prior contact with the subject mouse was put into a wire cage that was placed into one of the side chambers. […] The time spent in each chamber and the time spent around each cage was recorded on video.

| Molecule | GAD67-IR in the PrL and IL of mPFC (GAD67) | sEH protein in striatum and hippocampus (CA1, CA3, DG) (sEH; poly(I:C) 5 mg/kg/day E12-E17) | levels of sEH protein in the PFC (sEH; poly(I:C) 5 mg/kg/day E12-E17, vs saline-treated mice) | three-chamber social interaction test (ddY mice) |
| --- | --- | --- | --- | --- |
| polyriboinosinic-polyribocytidilic acid [Poly(I:C)] | significantly lower | no changes | significantly higher |  |
| O=C(O)CNCP(=O)(O)O [glyphosate] |  |  |  | social interaction deficits |

From patent publication US12357598B2, “Treatment of neurodevelopmental disorders” (THE REGENTS OF THE UNIVERSITY OF CALIFORNIA, priority 2018, dated 2025)
